Measured values published in ChEMBL document CHEMBL5291721, “A preclinical secondary pharmacology resource illuminates target-adverse drug reaction associations of marketed drugs” (Nat Commun, 2023).

How the values were obtained:
[1] = target: T1, Alpha-1A adrenergic receptor (Homo sapiens, UniProt P35348)
T1 sequence (P35348 whole entry): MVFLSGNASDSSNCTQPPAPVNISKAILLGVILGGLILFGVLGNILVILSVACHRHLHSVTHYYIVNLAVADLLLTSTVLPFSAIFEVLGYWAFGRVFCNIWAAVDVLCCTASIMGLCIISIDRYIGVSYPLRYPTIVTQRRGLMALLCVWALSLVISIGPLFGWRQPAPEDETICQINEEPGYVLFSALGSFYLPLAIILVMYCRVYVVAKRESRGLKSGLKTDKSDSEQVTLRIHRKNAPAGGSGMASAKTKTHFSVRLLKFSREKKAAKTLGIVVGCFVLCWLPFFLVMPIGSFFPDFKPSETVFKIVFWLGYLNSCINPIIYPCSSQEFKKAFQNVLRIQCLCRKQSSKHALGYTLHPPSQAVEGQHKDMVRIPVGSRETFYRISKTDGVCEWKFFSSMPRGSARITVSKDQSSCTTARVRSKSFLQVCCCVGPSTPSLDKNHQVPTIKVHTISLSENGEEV

[2] = target: T2, D(1A) dopamine receptor (Homo sapiens, UniProt P21728)
T2 sequence (P21728 whole entry): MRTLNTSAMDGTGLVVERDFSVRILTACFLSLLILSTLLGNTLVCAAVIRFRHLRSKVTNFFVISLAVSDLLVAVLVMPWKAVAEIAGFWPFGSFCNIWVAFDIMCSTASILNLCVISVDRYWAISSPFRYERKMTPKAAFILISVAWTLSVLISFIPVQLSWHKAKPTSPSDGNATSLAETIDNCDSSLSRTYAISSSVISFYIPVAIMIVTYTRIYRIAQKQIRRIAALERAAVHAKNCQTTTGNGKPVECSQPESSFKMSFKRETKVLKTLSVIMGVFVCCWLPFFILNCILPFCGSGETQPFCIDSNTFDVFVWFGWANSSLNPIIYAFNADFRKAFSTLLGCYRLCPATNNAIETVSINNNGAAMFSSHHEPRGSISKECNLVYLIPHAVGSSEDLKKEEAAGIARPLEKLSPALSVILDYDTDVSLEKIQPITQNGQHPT

[3] = target: T3, Corticotropin-releasing factor receptor 1 (Homo sapiens, UniProt P34998)
T3 sequence (P34998 whole entry): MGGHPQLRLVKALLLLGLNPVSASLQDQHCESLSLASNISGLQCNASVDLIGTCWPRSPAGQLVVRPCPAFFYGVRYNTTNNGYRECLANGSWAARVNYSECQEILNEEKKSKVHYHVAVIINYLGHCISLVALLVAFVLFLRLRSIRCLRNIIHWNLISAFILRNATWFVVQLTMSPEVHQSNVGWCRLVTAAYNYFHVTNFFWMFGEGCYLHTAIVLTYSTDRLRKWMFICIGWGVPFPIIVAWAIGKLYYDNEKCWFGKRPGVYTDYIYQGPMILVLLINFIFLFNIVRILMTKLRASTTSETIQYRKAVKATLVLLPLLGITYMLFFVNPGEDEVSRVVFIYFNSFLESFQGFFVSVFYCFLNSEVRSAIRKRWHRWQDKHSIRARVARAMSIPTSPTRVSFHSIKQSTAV

[4] = target: Neurotensin receptor type 1 (Homo sapiens, UniProt P30989)
Sequence of Neurotensin receptor type 1 (P30989 whole entry): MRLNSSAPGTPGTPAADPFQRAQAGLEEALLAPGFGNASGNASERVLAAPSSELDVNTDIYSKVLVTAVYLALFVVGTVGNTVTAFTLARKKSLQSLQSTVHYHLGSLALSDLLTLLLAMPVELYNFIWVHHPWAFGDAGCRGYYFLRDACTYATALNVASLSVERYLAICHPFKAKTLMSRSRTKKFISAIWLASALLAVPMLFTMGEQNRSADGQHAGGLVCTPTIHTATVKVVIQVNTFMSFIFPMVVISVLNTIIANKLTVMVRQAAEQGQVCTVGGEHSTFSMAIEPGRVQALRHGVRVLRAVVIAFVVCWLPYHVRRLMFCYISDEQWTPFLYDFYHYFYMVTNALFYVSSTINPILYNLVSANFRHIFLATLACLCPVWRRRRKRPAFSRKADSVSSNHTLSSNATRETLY

[5] = target: T1, Alpha-1A adrenergic receptor; remark: listed apart in the source
[6] = target: Glucagon receptor (Homo sapiens, UniProt P47871)
Sequence of Glucagon receptor (P47871 whole entry): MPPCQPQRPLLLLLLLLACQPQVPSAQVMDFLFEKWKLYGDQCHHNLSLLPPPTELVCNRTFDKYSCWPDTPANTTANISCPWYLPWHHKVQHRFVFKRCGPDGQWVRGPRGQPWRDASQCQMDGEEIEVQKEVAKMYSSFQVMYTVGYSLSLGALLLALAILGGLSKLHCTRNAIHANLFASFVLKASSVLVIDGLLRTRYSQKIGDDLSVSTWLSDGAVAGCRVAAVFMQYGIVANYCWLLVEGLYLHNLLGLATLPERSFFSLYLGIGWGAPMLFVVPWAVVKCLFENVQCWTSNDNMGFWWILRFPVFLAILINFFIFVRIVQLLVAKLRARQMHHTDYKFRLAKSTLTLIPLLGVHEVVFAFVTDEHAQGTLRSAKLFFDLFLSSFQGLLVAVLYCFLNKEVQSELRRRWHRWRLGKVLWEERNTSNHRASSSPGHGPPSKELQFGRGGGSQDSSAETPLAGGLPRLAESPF

[7] = target: T4, D(4) dopamine receptor (Homo sapiens, UniProt P21917)
T4 sequence (P21917 whole entry): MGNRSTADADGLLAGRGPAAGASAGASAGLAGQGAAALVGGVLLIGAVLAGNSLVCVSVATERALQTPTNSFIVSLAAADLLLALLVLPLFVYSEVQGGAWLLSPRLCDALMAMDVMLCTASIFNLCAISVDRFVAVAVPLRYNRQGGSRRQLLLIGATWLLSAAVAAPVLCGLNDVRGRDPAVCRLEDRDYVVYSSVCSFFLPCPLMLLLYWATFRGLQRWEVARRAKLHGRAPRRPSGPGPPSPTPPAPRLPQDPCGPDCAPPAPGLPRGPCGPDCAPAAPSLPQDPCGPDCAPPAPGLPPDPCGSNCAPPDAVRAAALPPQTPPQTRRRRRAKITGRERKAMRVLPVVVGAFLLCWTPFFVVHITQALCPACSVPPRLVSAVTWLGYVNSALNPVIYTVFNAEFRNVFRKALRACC

[8] = target: T5, Neuropeptide Y receptor type 2 (Homo sapiens, UniProt P49146)
T5 sequence (P49146 whole entry): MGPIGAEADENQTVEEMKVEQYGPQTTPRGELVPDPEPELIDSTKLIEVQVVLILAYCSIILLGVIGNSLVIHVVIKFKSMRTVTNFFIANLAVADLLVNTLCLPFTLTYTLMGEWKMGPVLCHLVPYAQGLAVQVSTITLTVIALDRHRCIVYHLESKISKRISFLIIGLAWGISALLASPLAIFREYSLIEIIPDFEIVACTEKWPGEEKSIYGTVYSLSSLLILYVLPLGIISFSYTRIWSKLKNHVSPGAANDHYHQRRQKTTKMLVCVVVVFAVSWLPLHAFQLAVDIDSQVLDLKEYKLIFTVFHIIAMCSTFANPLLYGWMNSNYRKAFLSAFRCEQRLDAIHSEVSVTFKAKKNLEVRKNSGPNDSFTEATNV

[9] = target: T2, D(1A) dopamine receptor; remark: listed apart in the source
[10] = target: Sodium-dependent noradrenaline transporter (Homo sapiens, UniProt P23975)
Sequence of Sodium-dependent noradrenaline transporter (P23975 whole entry): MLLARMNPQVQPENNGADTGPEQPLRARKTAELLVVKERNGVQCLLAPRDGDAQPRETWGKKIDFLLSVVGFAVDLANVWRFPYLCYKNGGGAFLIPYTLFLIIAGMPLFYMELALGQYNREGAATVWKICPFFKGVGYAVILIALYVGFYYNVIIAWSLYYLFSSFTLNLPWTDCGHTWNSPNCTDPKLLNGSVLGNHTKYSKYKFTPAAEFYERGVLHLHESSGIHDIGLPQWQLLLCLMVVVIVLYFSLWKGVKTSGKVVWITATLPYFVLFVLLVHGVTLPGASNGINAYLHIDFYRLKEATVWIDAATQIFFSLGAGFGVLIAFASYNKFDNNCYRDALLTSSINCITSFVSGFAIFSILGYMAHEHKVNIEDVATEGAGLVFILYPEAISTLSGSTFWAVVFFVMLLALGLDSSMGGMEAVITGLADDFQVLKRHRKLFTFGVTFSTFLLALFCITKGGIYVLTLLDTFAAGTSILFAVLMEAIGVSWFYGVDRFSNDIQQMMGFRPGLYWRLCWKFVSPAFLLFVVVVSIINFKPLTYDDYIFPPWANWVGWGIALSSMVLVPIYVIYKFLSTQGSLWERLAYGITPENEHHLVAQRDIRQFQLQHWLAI

[11] = target: T6, Muscarinic acetylcholine receptor M2 (Homo sapiens, UniProt P08172)
T6 sequence (P08172 whole entry): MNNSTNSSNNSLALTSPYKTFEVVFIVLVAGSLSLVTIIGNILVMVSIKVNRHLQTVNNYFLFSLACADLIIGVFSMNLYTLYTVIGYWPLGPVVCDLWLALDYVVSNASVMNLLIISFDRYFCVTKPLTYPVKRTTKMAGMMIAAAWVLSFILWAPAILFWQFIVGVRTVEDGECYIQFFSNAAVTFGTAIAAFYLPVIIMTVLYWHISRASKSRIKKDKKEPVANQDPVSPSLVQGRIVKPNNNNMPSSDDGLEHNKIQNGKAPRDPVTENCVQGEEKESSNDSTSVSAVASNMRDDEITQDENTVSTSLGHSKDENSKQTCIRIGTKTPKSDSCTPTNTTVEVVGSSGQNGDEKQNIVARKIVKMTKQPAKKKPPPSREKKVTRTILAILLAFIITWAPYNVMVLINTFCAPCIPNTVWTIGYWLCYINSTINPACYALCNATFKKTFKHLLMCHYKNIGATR

[12] = target: Histamine H2 receptor (Homo sapiens, UniProt P25021)
Sequence of Histamine H2 receptor (P25021 whole entry): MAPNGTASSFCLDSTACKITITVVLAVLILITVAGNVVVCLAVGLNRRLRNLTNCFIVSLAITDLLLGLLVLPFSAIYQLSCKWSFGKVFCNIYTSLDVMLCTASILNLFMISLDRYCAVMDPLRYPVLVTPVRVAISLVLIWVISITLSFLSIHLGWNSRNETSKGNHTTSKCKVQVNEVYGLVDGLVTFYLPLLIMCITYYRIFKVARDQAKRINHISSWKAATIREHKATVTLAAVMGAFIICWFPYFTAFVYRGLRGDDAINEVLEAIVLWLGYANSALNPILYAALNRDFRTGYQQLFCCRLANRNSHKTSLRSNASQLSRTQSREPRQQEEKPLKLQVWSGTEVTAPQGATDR

[13] = target: 5-hydroxytryptamine receptor 2B (Homo sapiens, UniProt P41595)
Sequence of 5-hydroxytryptamine receptor 2B (P41595 whole entry): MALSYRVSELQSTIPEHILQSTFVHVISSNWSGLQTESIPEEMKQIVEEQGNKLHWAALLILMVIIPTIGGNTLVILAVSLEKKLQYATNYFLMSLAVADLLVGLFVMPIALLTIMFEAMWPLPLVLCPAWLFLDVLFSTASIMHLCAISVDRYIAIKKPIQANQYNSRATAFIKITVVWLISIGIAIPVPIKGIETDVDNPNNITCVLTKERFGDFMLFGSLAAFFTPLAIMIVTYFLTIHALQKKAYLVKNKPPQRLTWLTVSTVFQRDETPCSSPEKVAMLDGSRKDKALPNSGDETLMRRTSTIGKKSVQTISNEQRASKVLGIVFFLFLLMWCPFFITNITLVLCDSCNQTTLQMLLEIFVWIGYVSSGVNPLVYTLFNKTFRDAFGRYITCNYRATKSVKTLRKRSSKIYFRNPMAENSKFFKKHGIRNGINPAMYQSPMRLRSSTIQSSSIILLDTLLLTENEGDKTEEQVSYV

[14] = target: Beta-2 adrenergic receptor (Homo sapiens, UniProt P07550); assay type: functional, cell-based
Sequence of Beta-2 adrenergic receptor (P07550 whole entry): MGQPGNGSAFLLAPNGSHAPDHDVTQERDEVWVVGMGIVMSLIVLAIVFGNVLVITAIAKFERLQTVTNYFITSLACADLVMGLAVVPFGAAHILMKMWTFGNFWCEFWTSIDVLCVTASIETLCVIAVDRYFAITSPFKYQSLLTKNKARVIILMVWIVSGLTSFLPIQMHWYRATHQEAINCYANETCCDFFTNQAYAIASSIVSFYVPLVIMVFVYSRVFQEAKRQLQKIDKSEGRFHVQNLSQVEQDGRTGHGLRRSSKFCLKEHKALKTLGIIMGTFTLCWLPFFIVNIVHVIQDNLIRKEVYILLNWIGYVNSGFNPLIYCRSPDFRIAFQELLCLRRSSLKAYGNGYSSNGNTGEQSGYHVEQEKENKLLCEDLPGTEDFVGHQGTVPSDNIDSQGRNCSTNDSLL
Note: assay procedure not described here.

For `CCCCCCCC(=O)N[C@H](CN1CCCC1)[C@H](O)c1ccc2c(c1)OCCO2`, which AC50 [1] is on record?
The AC50 was over 30 µM.

What about the AC50 [2] of the same molecule?
Its AC50 is over 30 µM.

Which AC50 [3] does the source give for `C[C@]1(COc2ccc(N3CCC(Oc4ccc(OC(F)(F)F)cc4)CC3)cc2)Cn2cc([N+](=O)[O-])nc2O1` here?
Its AC50 is over 30 µM.

What about the AC50 [4] of the same molecule?
The AC50 was over 30 µM.

And the AC50 [5]?
Its AC50 is over 10 µM.

And the AC50 [6]?
The AC50 was over 30 µM.

What about the AC50 [7] of the same molecule?
Its AC50 is over 10 µM.

And the AC50 [8]?
Its AC50 is over 30 µM.

What about the AC50 [9] of the same molecule?
Its AC50 is over 10 µM.

And the AC50 [10]?
The AC50 was over 10 µM.

And the AC50 [11]?
The AC50 was over 10 µM.

What about the AC50 [12] of the same molecule?
The AC50 was over 10 µM.

What about the AC50 [13] of the same molecule?
Its AC50 is over 10 µM.

Which AC50 [10] does the source give for `C[C@]12CC[C@H](O)CC1=CC[C@@H]1[C@@H]2CC[C@]2(C)C(c3cccnc3)=CC[C@@H]12` [ABIRATERONE] here?
The AC50 was over 30 µM.

With `CC(=O)OCC[N+](C)(C)C` [ACETYLCHOLINE] as the molecule, how does the AC50 [3] read?
Its AC50 is over 30 µM.

And the AC50 [4]?
Its AC50 is over 30 µM.

And the AC50 [5]?
Its AC50 is over 10 µM.

What about the AC50 [6] of the same molecule?
Its AC50 is over 30 µM.

What about the AC50 [7] of the same molecule?
Its AC50 is over 10 µM.

And the AC50 [8]?
The AC50 was over 30 µM.

And the AC50 [9]?
The AC50 was over 10 µM.

And the AC50 [10]?
Its AC50 is over 30 µM.

And the AC50 [12]?
The AC50 was over 10 µM.

And the AC50 [13]?
Its AC50 is over 10 µM.

For `O=C(Nc1nc(-c2cc(Cl)cs2)c(N2CCN(C3CCCCC3)CC2)s1)c1cnc(N2CCC(C(=O)O)CC2)c(Cl)c1` [AVATROMBOPAG], which AC50 [4] is on record?
The AC50 was over 10 µM.

What about the AC50 [5] of the same molecule?
The AC50 was over 10 µM.

What about the AC50 [7] of the same molecule?
Its AC50 is over 10 µM.

And the AC50 [1]?
Its AC50 is over 30 µM.

And the AC50 [8]?
The AC50 was over 10 µM.

What about the AC50 [2] of the same molecule?
The AC50 was over 30 µM.

And the AC50 [9]?
Its AC50 is over 10 µM.

What about the AC50 [10] of the same molecule?
The AC50 was over 10 µM.

And the AC50 [11]?
The AC50 was over 10 µM.

What about the AC50 [12] of the same molecule?
Its AC50 is over 10 µM.

And the AC50 [13]?
Its AC50 is over 10 µM.

For `CN(C)C(=O)Oc1cc(OC(=O)N(C)C)cc(C(O)CNC(C)(C)C)c1` (centres undefined) [BAMBUTEROL], which AC50 [10] is on record?
The AC50 was over 30 µM.

Which results are given for `C[C@H]1C[C@H]2[C@@H]3CCC4=CC(=O)C=C[C@]4(C)[C@@]3(Cl)[C@@H](O)C[C@]2(C)[C@@]1(O)C(=O)CO` [BECLOMETHASONE]?
AC50 [3]: > 30 µM; AC50 [4]: > 30 µM; AC50 [5]: > 10 µM; AC50 [6]: > 30 µM; AC50 [7]: > 10 µM; AC50 [8]: > 30 µM; AC50 [9]: > 10 µM; AC50 [10]: > 10 µM; AC50 [11]: > 10 µM; AC50 [12]: > 10 µM; AC50 [13]: > 10 µM

For `CO[C@@]1(NC(=O)CSCC#N)C(=O)N2C(C(=O)O)=C(CSc3nnnn3C)CS[C@@H]21` [CEFMETAZOLE], which AC50 [1] is on record?
Its AC50 is over 30 µM.

And the AC50 [2]?
The AC50 was over 30 µM.

What about the AC50 [14] of the same molecule?
Its AC50 is over 30 µM.

`CO/N=C(\C(=O)N[C@@H]1C(=O)N2C(C(=O)[O-])=C(C[n+]3cccc4c3CCC4)CS[C@H]12)c1csc(N)n1` [CEFPIROME] was tested. Which AC50 [14] did it give?
Its AC50 is over 30 µM.

How did the AC50 [10] turn out when `NS(=O)(=O)c1cc(C2(O)NC(=O)c3ccccc32)ccc1Cl` (centres undefined) [CHLORTHALIDONE] was run?
Its AC50 is over 10 µM.

With `CC[C@H]1OC(=O)[C@H](C)[C@@H](O[C@H]2C[C@@](C)(OC)[C@@H](O)[C@H](C)O2)[C@H](C)[C@@H](O[C@@H]2O[C@H](C)C[C@H](N(C)C)[C@H]2O)[C@](C)(OC)C[C@@H](C)C(=O)[C@H](C)[C@@H](O)[C@]1(C)O` [CLARITHROMYCIN] as the molecule, how does the AC50 [14] read?
Its AC50 is over 30 µM.

And the AC50 [10]?
Its AC50 is over 30 µM.

Which AC50 [1] does the source give for `Oc1c(I)cc(Cl)c2cccnc12` [CLIOQUINOL] here?
The AC50 was over 30 µM.

And the AC50 [2]?
Its AC50 is over 30 µM.

And the AC50 [14]?
The AC50 was over 10 µM.

Which AC50 [10] does the source give for `C[C@@H]1CCC[C@H](C)N1NC(=O)c1ccc(Cl)c(S(N)(=O)=O)c1` [CLOPAMIDE] here?
The AC50 was over 30 µM.

How did the AC50 [3] turn out when `COc1ccc2c(c1)[C@]13CCCC[C@@H]1[C@H](C2)N(C)CC3` [DEXTROMETHORPHAN] was run?
The AC50 was over 30 µM.

What about the AC50 [4] of the same molecule?
Its AC50 is over 30 µM.

What about the AC50 [5] of the same molecule?
The AC50 was 5.22 µM.

What about the AC50 [6] of the same molecule?
The AC50 was over 30 µM.

What about the AC50 [7] of the same molecule?
The AC50 was over 10 µM.

What about the AC50 [8] of the same molecule?
The AC50 was over 30 µM.

What about the AC50 [9] of the same molecule?
The AC50 was over 10 µM.

What about the AC50 [11] of the same molecule?
Its AC50 is over 10 µM.

What about the AC50 [12] of the same molecule?
Its AC50 is over 10 µM.

What about the AC50 [13] of the same molecule?
The AC50 was 5.8 µM.

Which AC50 [10] does the source give for `O=c1oc2ccccc2c(O)c1Cc1c(O)c2ccccc2oc1=O` [DICUMAROL] here?
The AC50 was over 10 µM.
